Measurements: US6380161B1, “Compositions for treating chemotherapy-resistant tumor cells and targeted chemotherapy compositions” (priority 1999, dated 2002)
“Also recorded” adds a separate entry of the source. Read-outs that look alike come from different tables or passages of the source. Residues, ends and D or L forms follow the SMILES beside them. No end group written: not given here. *: point of attachment. X1 = COc1cccc2c1C(=O)c1c(O)c3c(c(O)c1C2=O)CC(O)(C(=O)CO)C[C@@H]3O[C@H]1C[C@H](N*)[C@H](O)[C@H](C)O1; Acm = CC(=O)NC*

Legend:
[1] = test system: Doxorubicin and multidrug-resistant CHO Cells; experiment: Coadministration of peptides and doxorubicin on resistant CHO cells; type: cell-based; settings: peptide coadministered with doxorubicin, not linked
Procedure: Doxorubicin and multidrug-resistant CHO cells were treated with a 7 coadministration of peptides and doxorubicin. In this example the peptides were not linked to the doxorubicin, but were only administered at the same time.

[2] = test system: Wild-type CHO Cells; experiment: Cell viability / in vitro LD50 on wild-type CHO cells (ALAMAR BLUE); type: cell-based
Procedure: (§1) Doxorubicin and multidrug-resistant CHO cells were cultured using standard tissue culture conditions: 37° C., DMEM media, serum free conditions, with 5% CO2 for pH adjustment. The cells were treated for 24 hours with either doxorubicin or Dox-P, the peptide conjugate prepared in Example 1, at concentrations of 0.25, 0.5, 0.75, and 1.0 mM. Untreated cells were used as a negative control.
Cell viability was measured using the ALAMAR BLUE™ assay (available from Biosource International, Camarillo, Calif.). The assay quantitatively measures the proliferation of cell lines and can establish the relative cytotoxicity of chemical agents. The assay incorporates a fluorometric/colorimetric growth indicator based on detection of metabolic activity. The system incorporates an oxidation-reduction (redox) indicator that both fluoresces and changes color in response to chemical reduction of growth medium resulting from cell growth. This causes the redox indicator to change from its oxidized, non-fluorescent, blue form to its reduced, fluorescent, red form. Data can be collected using either fluorescence-based instrumentation (530-560 nm excitation wavelength and 590 nm emission wavelength) or absorbance-based instrumentation (570 nm and 600 nm). […]
The LD50, the dose at which half of the cells die, was calculated from Dox and Dox-P dose response curves for five different cell lines, as shown in Table 1.

[3] = test system: Doxorubicin and multidrug-resistant CHO Cells; experiment: Cell viability / in vitro LD50 on drug-resistant CHO cells (ALAMAR BLUE); type: cell-based; settings: 24 hours, 0.25, 0.5, 0.75 and 1.0 mM
Procedure: as §1
Cell viability was measured using the ALAMAR BLUE™ assay (available from Biosource International, Camarillo, Calif.). The assay quantitatively measures the proliferation of cell lines and can establish the relative cytotoxicity of chemical agents. The assay incorporates a fluorometric/colorimetric growth indicator based on detection of metabolic activity. The system incorporates an oxidation-reduction (redox) indicator that both fluoresces and changes color in response to chemical reduction of growth medium resulting from cell growth. This causes the redox indicator to change from its oxidized, non-fluorescent, blue form to its reduced, fluorescent, red form. Data can be collected using either fluorescence-based instrumentation (530-560 nm excitation wavelength and 590 nm emission wavelength) or absorbance-based instrumentation (570 nm and 600 nm).

[4] = test system: B16-F10 melanoma cells; experiment: Adhesion of B16-F10 melanoma cells to coated wells; type: cell-based; settings: wells covered with 40 μg/ml
Procedure: An adhesion study was performed to evaluate the adhesion of B16-F10 melanoma cells (a nonresistant cell line) to doxorubicin and the doxorubicin-peptide conjugate of Example 1. In a 96 well plate, duplicate wells were covered with 40 μg/ml either TSP, Dox-P, the Cys(Acm)-Ser-Val-Thr-Cys(Acm)-Gly (SEQ ID NO: 6) peptide, Dox, the scrambled peptide Val-Cys-Thr-Gly-Ser-Cys (SEQ ID NO: 3), the Cys(Acm)Ser-Val-Thr-Cys-(Acm)-Gly (SEQ ID NO: 6) peptide with a d orientation, or 1% bovine serum albumin (BSA). The wells were dried out overnight and then blocked with BSA. 100 μl of a suspension containing 2×10^5 B16-F-10 melanoma cells were plated in the protein covered wells and incubated at 37° C. for 20 minutes to 1 hour. The non-adherent cells were removed and the wells were washed with a Hepes buffer. The adherent cells were fixed with 2.5% glutaraldehyde for 10 minutes and stained with 0.2% Giemsa. The stain was washed off and the cells were counted in a field of 1 mm square. Cells adhering to BSA were considered background.

[5] = test system: Melanoma tumor cells; experiment: Melanoma tumor development (lung tumor colonies) in mice; type: in vivo; settings: intraperitoneally 24 and 96 hours after tumor implantation, 18 μM/kg, versus buffer
Procedure: This experiment was designed to evaluate whether the conjugation of the peptide to doxorubicin altered its ability to prevent wild-type, nonresistant tumor development in mice. Melanoma tumor cells were injected into mice. The animals (5 in each group) were treated intraperitoneally 24 and 96 hours after tumor implantation with either buffer alone, Dox-P, the Cys(Acm)-Ser-Val-Thr-Cys(Acm)-Gly (SEQ ID NO: 6) peptide, or Dox, at a concentration of 18 μM/kg. The mice were sacrificed and the melanoma tumor colonies on the lung were counted. […] Additionally, the tumor colonies in the Dox-P and the Dox groups were 2-5 fold smaller than in the buffer group.

[6] = test system: B16-F10 Melanoma; experiment: In vitro LD50 from dose response curves (ALAMAR BLUE cell viability); type: cell-based; settings: dose at which half of the cells die
[7] = test system: Lewis Lung Carcinoma; experiment: as above; type: cell-based; settings: dose at which half of the cells die
[8] = test system: Human Breast Carcinoma; experiment: as above; type: cell-based; settings: dose at which half of the cells die
[9] = mice, 68 mg/kg (same number of doxorubicin molecules as Dox 30 mg/kg), 3 mice treated

ASVTAR
Effect of peptide on doxorubicin toxicity of resistant CHO cells [1]: shows a dose-response effect

COc1cccc2c1C(=O)c1c(O)c3c(c(O)c1C2=O)CC(O)(C(=O)CO)C[C@@H]3O[C@H]1C[C@H](NC(=O)CNC(=O)[C@H](CSCNC(C)=O)NC(=O)[C@@H](NC(=O)[C@@H](NC(=O)[C@H](CO)NC(=O)[C@H](CSCNC(C)=O)NC(C)=O)C(C)C)[C@@H](C)O)[C@H](O)[C@H](C)O1 (stereo partly drawn) [Dox-P] (Ac-C(Acm)SVTC(Acm)G-X1)
Effect on wild-type CHO cell viability ([2]; 24 hours, 0.25-1.0 mM, compared with Dox alone): appears to function more effectively against wild-type CHO cells than Dox alone | Effect on drug-resistant CHO cell viability (dose response) [3]: dramatic dose-response effect | Adhesion of B16-F10 melanoma cells [4]: does not destroy its adhesive activity | Melanoma tumor development (number of lung tumor colonies / lung metastasis) [5]: inhibit the development of lung metastasis; also recorded: effective at preventing tumor development | Toxicity Results: body weight change [9]: some small weight gain | Toxicity Results: survival [9]: 3 mice lived

COc1cccc2c1C(=O)c1c(O)c3c(c(O)c1C2=O)C[C@@](O)(C(=O)CO)C[C@@H]3O[C@H]1C[C@H](N)[C@H](O)[C@H](C)O1 [Dox, doxorubicin, reference compound]
In Vitro LD50 [6]: 0.30 mM | In Vitro LD50 [7]: 0.20 mM | In Vitro LD50 [8]: 1.0 mM | In Vitro LD50 ([2]; Wild-type CHO Cells, dose at which half of the cells die): 1.0 mM | Effect on drug-resistant CHO cell viability (dose response) [3]: negligible effect | Melanoma tumor development (number of lung tumor colonies / lung metastasis) [5]: inhibit the development of lung metastasis; also recorded: effective at preventing tumor development | Toxicity Results: survival (mice, 30 mg/kg, 3 mice treated): 3 mice died^1 | Toxicity Results: body weight change (mouse, in vivo, 30 mg/kg): significant weight loss

Cys(Acm)-Ser-Val-Thr-Cys(Acm)-Gly (C(Acm)SVTC(Acm)G) [thrombospondin-derived hexapeptide with cysteine sulfur protected by acetamidomethyl (Acm) groups]
Melanoma tumor development (number of lung tumor colonies / lung metastasis) [5]: lower number of tumors than buffer alone | Melanoma tumor development (number of lung tumor colonies / lung metastasis) ([5]; listed as peptide): inhibit the development of lung metastasis | Effect of peptide on doxorubicin toxicity of resistant CHO cells [1]: did not show any effect
